# From patent US20250000971A1, “TLR4 AGONIST FOR MODULATING IMMUNE RESPONSE” (The Children's Medical Center Corporation, priority 2021, published 2025)
# Entries after “also recorded” stand apart in the source; their conditions may differ.
# Tests used:
# [1] = tested on: human elderly peripheral blood mononuclear cells (PBMCs); test: Enriched elderly screen: TNF-inducing activity in human elderly PBMCs (384-well); type: cell-based; conditions: screen of 310 molecules, PBMCs of 4 elderly donors, 10% autologous plasma
# Source text: FIG. 1A: A graphical overview depicting screen approach. From a high throughput screen previously conducted, 310 molecules were identified to be activators of either THP-1 cells (monocyte cell line) or primary human adult peripheral blood mononuclear cells (PBMCs). These 310 molecules were assembled into a stimulation plate and then applied to the PBMCs of 4 elderly donors (cultured with 10% autologous plasma). […] Z scores were averaged across all 4 elderly donors. The Z score and chemical structure for PVP-180 are indicated.
# In a previous high throughput screen (HTS), a number of hit molecules were identified as potentially being able to activate human immune cells. From 200,000 molecules screened, 177 had activity with NF-KB/IRF-inducing and leukocyte adherence/inducing activity. A separate small screen (9,000 molecules of the 200,000) was also conducted and 133 separate molecules had TNF-inducing activity in adult human peripheral blood mononuclear cells (PBMCs). These molecules originated from various bioactive and commercial libraries such as ChemDiv, ChemBridge, and Asinex. All libraries were owned and provided by the Institute of Chemistry and Cell Biology (ICCB)-Longwood (Harvard Medical School). […]
# [2] = tested on: human adult and elderly PBMCs; test: TNF production in human adult and elderly PBMCs, 96-well format, 24 h stimulation; type: cell-based
# [3] = tested on: human adult and elderly PBMCs; test: Cytokine responses of PBMC supernatants by 14-multiplex assay; type: cell-based
# [4] = tested on: wild type murine bone marrow derived dendritic cells (BMDCs); test: TNF and IL-6 production by wild type murine bone marrow derived dendritic cells; type: cell-based; conditions: N=4
# human TLR4 = molecular target: T1, human TLR4 (Homo sapiens, UniProt O00206+Q9Y6Y9); test: PRR-transfected HEK reporter cell lines, TLR4; type: cell-based; conditions: HEK reporter cell line, screened at 33 μM
# T1 construct: expressed in transfected cells; host or cells: HEK reporter cell line
# T1 sequence (O00206 24-839): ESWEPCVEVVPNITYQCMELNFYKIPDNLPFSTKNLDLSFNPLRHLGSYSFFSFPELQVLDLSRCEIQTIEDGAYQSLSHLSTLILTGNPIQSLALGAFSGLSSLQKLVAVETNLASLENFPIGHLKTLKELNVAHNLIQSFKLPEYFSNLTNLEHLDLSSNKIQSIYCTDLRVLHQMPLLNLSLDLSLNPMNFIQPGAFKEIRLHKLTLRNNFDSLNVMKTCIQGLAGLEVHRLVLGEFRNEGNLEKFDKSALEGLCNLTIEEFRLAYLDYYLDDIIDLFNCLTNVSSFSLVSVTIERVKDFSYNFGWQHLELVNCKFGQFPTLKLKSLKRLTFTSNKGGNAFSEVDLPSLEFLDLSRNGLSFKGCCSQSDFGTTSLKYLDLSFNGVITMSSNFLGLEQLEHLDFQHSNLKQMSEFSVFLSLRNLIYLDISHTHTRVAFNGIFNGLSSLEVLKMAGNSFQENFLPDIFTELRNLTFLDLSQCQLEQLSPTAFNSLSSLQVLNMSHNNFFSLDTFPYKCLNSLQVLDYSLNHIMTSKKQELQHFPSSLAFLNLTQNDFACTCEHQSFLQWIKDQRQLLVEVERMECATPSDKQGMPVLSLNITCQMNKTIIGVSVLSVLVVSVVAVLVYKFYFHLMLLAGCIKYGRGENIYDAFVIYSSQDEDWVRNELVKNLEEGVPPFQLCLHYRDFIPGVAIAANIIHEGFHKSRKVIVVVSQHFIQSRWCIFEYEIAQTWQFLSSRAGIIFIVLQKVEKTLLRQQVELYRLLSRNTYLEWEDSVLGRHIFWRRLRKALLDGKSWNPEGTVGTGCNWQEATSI
# T1 sequence (Q9Y6Y9 19-160): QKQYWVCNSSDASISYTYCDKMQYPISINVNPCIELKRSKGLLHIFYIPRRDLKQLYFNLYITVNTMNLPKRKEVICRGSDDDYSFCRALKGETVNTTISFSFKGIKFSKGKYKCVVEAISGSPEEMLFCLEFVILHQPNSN
# Procedure: (§1) FIGS. 3A-3B. PVP-180 is a novel small molecule TLR4 agonist. FIG. 3A: PVP-180 was screened at 33 μM using pattern recognition receptor (PRR)-transfected HEK reporter cell lines. Cell line responses are also indicated to PRR-specific positive controls as well as a negative control. […] Further assays confirm that PVP-180 chemical stock is free of detectable endotoxin. FIG. 3B: PVP-180 was tested with THP-1 reporter cells as well as THP-1 cells with MyD88, TBK1, or IRF3 knockout. […] Results are reported as a percentage of TNF activity.
# [5] = tested on: pattern recognition receptors (PRR) other than TLR4; test: PRR-transfected HEK reporter cell lines, other PRRs; type: cell-based; conditions: screened at 33 μM
# Procedure: as §1
# NF-KB = test: THP-1 reporter cells and THP-1 cells with MyD88, TBK1 or IRF3 knockout; type: cell-based; conditions: THP-1 reporter cells versus knockout strains
# Procedure: as §1
# [6] = tested on: Balb/c murine model of SARS-COV-2 immunization; test: Balb/c murine model of SARS-COV-2 immunization with rSpike with or without adjuvant; type: in vivo, mice; conditions: for rSpike immunogenicity: adult (12 weeks) and aged mice (52 weeks), booster on Day 14
smiles,measurement,setting,value
CC1CCc2cc(F)ccc2N1C(=O)c1ccc(N2CC3CC(C2)c2cccc(=O)n2C3)c(NC(=O)c2cccnc2)c1 (centres unmarked) [PVP-180],TNF-inducing activity toward elderly PBMCs,[1],robust activity
same,TNF response as fold-change over the positive control (R848),[2]; at 3 μM and above,more adult-like TNF response
same,production of TNF,"[2]; elderly and adult PBMCs, stimulated for 24 hours, N=4",titration-dependent production of TNF
same,"innate immune response (cytokines), elder versus younger adult leucocytes",[3]; 14-multiplex assay,greater innate immune response in elder leucocytes than in younger adult controls
same,"production of multiple cytokines including TNF, IFNγ and IL-10","[3]; both populations (adult and elderly PBMCs), PVP-180 at 25 μM, N=4 donors",induced the production of multiple cytokines
same,"cytokine (TNF, IL-6, IL-10, IL-12, GM-CSF, IFN-γ, IL1-β, IP-10) and/or chemokine (CCL2, CCL5, CXCL8) production","[3]; human PBMC in vitro, compound alone",sufficient to induce cytokine
same,induction of IL-6 production,[4],concentration-dependent induction
same,induction of TNF production,[4],concentration-dependent induction
same,activity toward TLR4,human TLR4,strong activity; also recorded: significant activity
same,activity toward the other PRRs tested,[5],not the other PRRs tested
same,"dependence of mechanism on MyD88, TBK1, IRF3",NF-KB,"dependent upon MyD88, TBK1, and IRF3"
same,rSpike immunogenicity,[6],enhanced rSpike immunogenicity
same,rSpike immunogenicity,[6]; listed as compound of Formula (I),enhanced antigen-specific immune response
same,adjuvant activity in adult mice,"[6]; adult mice, overall IgG at Day 28",adjuvant activity in immunized adult mice. though with a less pronounced effect than in aged mice
same,anti-rSpike IgG2 antibodies,[6]; aged mice,increase
same,antibody titers versus rSpike alone,"[6]; aged mice, overall IgG at Day 28",substantially higher antibody titers
same,anti-rSpike IgG1 subtype antibodies,[6]; both adult and aged mice,primarily enhanced the production
